Patent US8623862B2, “Derivatives of N-[(1H-pyrazol-1-yl)aryl]-1H-indole or 1H-indazole-3-carboxamide, preparation thereof and applications thereof in therapeutics” (Sanofi, priority 2011, dated 2014)

Assays:
platelet aggregation [1] = assay: Inhibition of platelet aggregation ex vivo (rat blood); format: in vivo; conditions: Platelet, 2 h; rat, gavage (oral), 10 mg/kg, two hours before taking the sample; read-out: Inhibition of platelet aggregation ex vivo (rat blood) in %, Gavage (oral) 10 mg/kg
Procedure: Inhibition of Platelet Aggregation Ex Vivo (Rat Blood)
Male rats of the Sprague-Dawley strain, weighing 250-300 g, are used at a rate of 6 animals per batch. Each test compound is diluted in a solution of glucose-containing water (glucose 5%) containing 5% of cremophore and 3% of glycofurol.
The compounds according to the invention are administered by stomach tube (10 ml/kg at 1 mg/ml) two hours before taking the sample or by infusion (1 ml/kg at 10 mg/ml) two hours before taking the sample.
The platelet-rich plasma (PRP) is obtained by centrifugation of the blood at 300 g for 5 minutes, and the measurements of platelet aggregation are performed as described above.
The results are calculated using the area under the curve of absorbance measured for 6 minutes, and expressed as percentage (%) of inhibition.

platelet aggregation [2] = assay: Inhibition of platelet aggregation in vitro (rat blood); format: cell-based; conditions: 0.1 h; rat platelet-rich plasma, ADP-induced aggregation, area under the curve of absorbance for 6 minutes; read-out: Inhibition of platelet aggregation in vitro (rat blood);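 note: aggregation induced by ADP added as 4 µL of a 250 µM solution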
In short: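 Platelet-rich plasma from male Sprague-Dawley rats (250-300 g), prepared by centrifugation at 300 g for 5 minutes. Aggregation measured at 37° C in an aggregometer. Percentage inhibition derived from area under the absorbance curve over 6 minutes.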

Structure (SMILES): CCCC(=O)c1cnn(-c2ccc(NC(=O)c3cn(CC(=O)N4CC(C)N(C)C(C)C4)c4ccc(Cl)cc34)cc2)c1C.Cl (stereo not shown) [Compound 262, N-[4-(4-Butyryl-5-methyl-1H-pyrazol-1-yl)phenyl]-5-chloro-1-[2-oxo-2-(3,4,5-trimethylpiperazin-1-yl)ethyl]-1H-indole-3-carboxamide hydrochloride]
- melting point: 217 °C
- inhibition at 10 mg/kg (platelet aggregation [1]): 58.8%

Structure (SMILES): CCCC(=O)c1cnn(-c2ccc(NC(=O)c3cn(CC(=O)N4CCN(CCOC(C)=O)CC4)c4ccc(Cl)cc34)cc2)c1C.Cl [Compound 275, 2-{4-[(3-{[4-(4-Butyryl-5-methyl-1H-pyrazol-1-yl)phenyl]carbamoyl}-5-chloro-1H-indol-1-yl)acetyl]piperazin-1-yl}ethyl acetate hydrochloride]
- IC50 (platelet aggregation [2]): 200 nM
- melting point: 160 °C

Structure (SMILES): CCCC(=O)c1cnn(-c2ccc(NC(=O)c3cn(CC(=O)N4CCN(CC(C)=O)CC4)c4ccc(Cl)cc34)cc2)c1C.Cl [Compound 276, N-[4-(4-Butyryl-5-methyl-1H-pyrazol-1-yl)phenyl]-5-chloro-1-{2-oxo-2-[4-(2-oxopropyl)piperazin-1-yl]ethyl}-1H-indole-3-carboxamide hydrochloride]
- IC50 (platelet aggregation [2]): 220 nM
- melting point: 248 °C
- inhibition at 10 mg/kg (platelet aggregation [1]): 49.9%
